Biological target: T1, UL98 (CMV alkaline nuclease) (Human herpesvirus 5 strain AD169, UniProt P16789)
T1 sequence (P16789 1-584): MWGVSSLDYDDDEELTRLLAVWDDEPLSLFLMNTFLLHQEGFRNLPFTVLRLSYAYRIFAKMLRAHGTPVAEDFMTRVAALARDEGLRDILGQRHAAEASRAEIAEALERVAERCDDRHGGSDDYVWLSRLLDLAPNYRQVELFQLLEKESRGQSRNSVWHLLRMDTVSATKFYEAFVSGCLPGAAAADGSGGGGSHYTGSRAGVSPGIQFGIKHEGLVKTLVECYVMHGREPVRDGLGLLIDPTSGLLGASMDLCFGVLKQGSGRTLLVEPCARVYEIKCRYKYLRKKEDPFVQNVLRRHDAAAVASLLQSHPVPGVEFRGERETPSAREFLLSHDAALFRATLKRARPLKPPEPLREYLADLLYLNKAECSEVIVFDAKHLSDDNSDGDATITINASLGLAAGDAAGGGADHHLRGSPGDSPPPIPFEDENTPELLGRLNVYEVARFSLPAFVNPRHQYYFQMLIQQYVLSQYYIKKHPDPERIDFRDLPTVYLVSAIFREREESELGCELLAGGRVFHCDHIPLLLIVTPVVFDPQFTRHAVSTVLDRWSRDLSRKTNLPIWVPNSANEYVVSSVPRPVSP
Assay: TCA-soluble […] release from labeled E. coli duplex DNA
Type: biochemical

Row | IC50 [µM] | SMILES
1 | 99 | CC(=O)Nc1ccc(Nc2cc(S(=O)(=O)O)c(N)c3c2C(=O)c2ccccc2C3=O)cc1 [acid blue 40]
2 | 4.5 ± 0.7 | Cc1cc(C)c(Nc2cc(S(=O)(=O)O)c(N)c3c2C(=O)c2ccccc2C3=O)c(C)c1 [atanyl blue PRL]

Source: article PMC4289655 (Antiviral Research, 2014)
